Measurements from US20130023045A1, “INDUCED HEPATIC STEM CELL AND PROCESS FOR PRODUCTION THEREOF, AND APPLICATIONS OF THE CELL” (NATIONAL CANCER CENTER, priority 2010, published 2013).

System: induced human hepatic stem cells (AFB1-1, NGC1-2)
Assay: Long-term passage culture of induced human hepatic stem cells
Assay type: cell-based
Conditions: addition of 0.05-0.5 μM to the medium, passage culture for six months or longer
Excerpt: Induced human hepatic stem cells (AFB1-1, NGC1-2) were subjected to passage culture for six months or longer. The exemplary medium used includes mTeSR1 (STEMCELL Technologies/VERITAS), a bFGF-supplemented medium for primate ES/iPS cells (ReproCELL), or bFGF-supplemented ReproStem (ReproCELL). In the case of using MEFs, a collagen- or gelatin-coated culture dish was used, and in the case of not using MEFs, a matrigel-coated culture dish was used.

Cc1cccc(-c2nn(C(=S)Nc3ccccc3)cc2-c2ccnc3ccccc23)n1 [A-83-01]
proliferation rate and morphology: highly satisfactory proliferation rate and morphology
self-replication of induced human hepatic stem cells: useful for self-replication of induced human hepatic stem cells
